This is an account of results in patent US12441768B2, “Compositions and methods for treating endometriosis” (EndoMet Biosciences, Inc., priority 2018, dated 2025).

Where a SMILES comes first, the peptide text is derived from it.

The conditions of data set [1]: % Viability non-Wnt responsive cells.
Data set [2] has as its target Wnt-responsive promoter (TCF/LEF). Kind of data set: Wnt-dependent luciferase reporter assay. Format: cell-based, murine. The method in brief: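 EC50 (uM) derived from inhibition of luminescence in Wnt3a-stimulated murine 3T3 cells expressing luciferase under a TCF/LEF promoter, with peptides added across a concentration range and vehicle as control.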
The target of another data set is T1, β-catenin (Homo sapiens, UniProt P35222).
T1 sequence (P35222 1-781): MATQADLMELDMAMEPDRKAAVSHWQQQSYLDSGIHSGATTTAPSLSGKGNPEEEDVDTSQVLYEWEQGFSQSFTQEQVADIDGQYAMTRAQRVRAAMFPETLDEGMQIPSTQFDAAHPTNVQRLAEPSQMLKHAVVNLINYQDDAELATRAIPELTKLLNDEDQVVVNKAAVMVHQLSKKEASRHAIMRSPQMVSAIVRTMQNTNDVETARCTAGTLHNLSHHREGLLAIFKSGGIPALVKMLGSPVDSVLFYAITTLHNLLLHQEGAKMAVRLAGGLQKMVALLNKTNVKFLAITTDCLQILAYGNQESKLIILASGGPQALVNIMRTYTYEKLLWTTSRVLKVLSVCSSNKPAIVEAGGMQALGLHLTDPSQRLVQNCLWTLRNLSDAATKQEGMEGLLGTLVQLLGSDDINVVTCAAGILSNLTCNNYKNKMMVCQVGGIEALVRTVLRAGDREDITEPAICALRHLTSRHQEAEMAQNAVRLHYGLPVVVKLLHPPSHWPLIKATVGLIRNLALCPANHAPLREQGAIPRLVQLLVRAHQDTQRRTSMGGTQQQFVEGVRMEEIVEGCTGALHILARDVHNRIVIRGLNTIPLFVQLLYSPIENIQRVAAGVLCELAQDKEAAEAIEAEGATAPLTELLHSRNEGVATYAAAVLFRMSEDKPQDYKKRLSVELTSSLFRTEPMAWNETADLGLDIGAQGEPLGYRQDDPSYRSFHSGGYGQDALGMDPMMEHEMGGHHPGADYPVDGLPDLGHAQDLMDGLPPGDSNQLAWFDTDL
Kind of data set: KD50 measurement using competitive fluorescence polarization (FP) with labelled TCF4. Format: binding. The note with it: fluorescence polarization, β-catenin; for Kd: read-out: β-Cat FP KD. The method in brief:
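Competitive FP in which unlabelled inhibitor (10 nM to 30 uM dilution series) displaces 5 nM labelled TCF4 from 100 nM β-catenin, room temperature. Read-out ex 470 nm, em 520 nm; experiment repeated three times.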
(In general: In fluorescence polarisation assays a small probe gives low polarisation when free and higher when bound to something large.)

As for `CC[C@H](C)[C@@H]1NC(=O)[C@H](CC(C)C)NC(=O)[C@H](Cc2ccccc2)NC(=O)[C@H](Cc2c[nH]c3ccccc23)NC(=O)[C@H](CCSC)NC(=O)[C@@H](N)CCCCNC(=O)CC[C@@H](C(=O)N[C@@H](Cc2c[nH]c3ccccc23)C(=O)NCC(=O)O)NC(=O)[C@H](CS)NC1=O` [compound 180] (HELM PEPTIDE1{K.M.W.F.L.I.C.E.W.G}$PEPTIDE1,PEPTIDE1,1:R3-8:R3$$$V2.0), the viability in data set [1] is 103%. In data set [2], this molecule yielded an EC50 of less than 7.5 µM. Further, on β-catenin, the Kd is more than 30 µM.
`CC[C@H](C)[C@@H]1NC(=O)[C@H](CC(C)C)NC(=O)[C@H]([C@@H](C)CC)NC(=O)[C@H](Cc2c[nH]c3ccccc23)NC(=O)[C@@H](N)CCCCNC(=O)CC[C@@H](C(=O)O)NC(=O)[C@H](Cc2c[nH]c3ccccc23)NC(=O)[C@H](Cc2ccccc2)NC(=O)[C@H](CO)NC1=O` [compound 182] (HELM PEPTIDE1{K.W.I.L.I.S.F.W.E}$PEPTIDE1,PEPTIDE1,1:R3-9:R3$$$V2.0): the viability in data set [1] was 95.3%. In data set [2], the EC50 lay in the range of 22.5 to 30 µM. Further, on β-catenin, the “β-Cat FP Hill slope” value came to 1.06 and the Kd is 0.4 to 1 µM.
Taken in the same sequence, the figures for `CC[C@H](C)[C@@H]1NC(=O)[C@H](CC(C)C)NC(=O)[C@H](Cc2ccccc2)NC(=O)[C@H](Cc2c[nH]c3ccccc23)NC(=O)[C@@H](N)CCCCNC(=O)CC[C@@H](C(=O)O)NC(=O)[C@H](Cc2c[nH]c3ccccc23)NC(=O)[C@H](C)NC(=O)[C@H](CO)NC1=O` [compound 183] (HELM PEPTIDE1{K.W.F.L.I.S.A.W.E}$PEPTIDE1,PEPTIDE1,1:R3-9:R3$$$V2.0) were 97%, less than 7.5 µM, 0.7 and 1 to 10 µM.
With `CC[C@H](C)[C@@H]1NC(=O)[C@H](CC(C)C)NC(=O)[C@H]([C@@H](C)CC)NC(=O)[C@H](Cc2c[nH]c3ccccc23)NC(=O)[C@@H](N)CCCCNC(=O)CC[C@@H](C(=O)O)NC(=O)[C@H](Cc2c[nH]c3ccccc23)NC(=O)[C@H](C)NC(=O)[C@H](CO)NC1=O` [compound 184] (HELM PEPTIDE1{K.W.I.L.I.S.A.W.E}$PEPTIDE1,PEPTIDE1,1:R3-9:R3$$$V2.0), the viability in data set [1] came out at 95.2%. For the same molecule, the EC50 in data set [2] is less than 7.5 µM. Further, on β-catenin, the “β-Cat FP Hill slope” value was 0.7 and the Kd was in the range of 10 to 30 µM.
As to `CC[C@H](C)[C@@H]1NC(=O)[C@H](CC(C)C)NC(=O)[C@H](Cc2ccccc2)NC(=O)[C@H](Cc2c[nH]c3ccccc23)NC(=O)[C@@H](NC(C)=O)CCCCNC(=O)CC[C@@H](C(=O)O)NC(=O)[C@H](Cc2c[nH]c3ccccc23)NC(=O)[C@H](Cc2ccccc2)NC(=O)[C@H](CS)NC1=O` [compound 185] (HELM PEPTIDE1{[ac].K.W.F.L.I.C.F.W.E}$PEPTIDE1,PEPTIDE1,2:R3-10:R3$$$V2.0), the viability in data set [1] turned out to be 87.8%. Moreover, in data set [2], the EC50 is 22.5 to 30 µM. In addition, at β-catenin, the “β-Cat FP Hill slope” value amounted to 1.32 and the Kd was less than 0.4 µM.
`CC[C@H](C)[C@@H]1NC(=O)[C@H](CC(C)C)NC(=O)[C@H](Cc2ccccc2)NC(=O)[C@H](Cc2c[nH]c3ccccc23)NC(=O)[C@H](CCSC)NC(=O)[C@@H](NC(C)=O)CCCCNC(=O)CC[C@@H](C(=O)O)NC(=O)[C@H](Cc2c[nH]c3ccccc23)NC(=O)[C@H](Cc2ccccc2)NC(=O)[C@H](CS)NC1=O` [compound 186] (HELM PEPTIDE1{[ac].K.M.W.F.L.I.C.F.W.E}$PEPTIDE1,PEPTIDE1,2:R3-11:R3$$$V2.0): the viability in data set [1] came to 96.4%. For the same molecule, the EC50 in data set [2] is more than 30 µM. For the same molecule, at β-catenin, the “β-Cat FP Hill slope” value was found to be 1.07 and the Kd is 0.4 to 1 µM.
As to `CC[C@H](C)[C@@H]1NC(=O)[C@H](CC(C)C)NC(=O)[C@H](Cc2ccccc2)NC(=O)[C@H](Cc2c[nH]c3ccccc23)NC(=O)[C@@H](NC(C)=O)CCCCNC(=O)CC[C@@H](C(=O)O)NC(=O)[C@H](Cc2c[nH]c3ccccc23)NC(=O)[C@H](C)NC(=O)[C@H](CO)NC1=O` [compound 187] (HELM PEPTIDE1{[ac].K.W.F.L.I.S.A.W.E}$PEPTIDE1,PEPTIDE1,2:R3-10:R3$$$V2.0), in data set [1], the viability came out at 90.3%. In data set [2], this molecule displayed an EC50 of 7.5 to 15 µM. Moreover, on β-catenin, the “β-Cat FP Hill slope” value turned out to be 0.7 and the Kd is 1 to 10 µM.
With `CC[C@H](C)[C@@H]1NC(=O)[C@H](CC(C)C)NC(=O)[C@H]([C@@H](C)CC)NC(=O)[C@H](Cc2c[nH]c3ccccc23)NC(=O)[C@@H](NC(C)=O)CCCCNC(=O)CC[C@@H](C(=O)O)NC(=O)[C@H](Cc2c[nH]c3ccccc23)NC(=O)[C@H](C)NC(=O)[C@H](CO)NC1=O` [compound 188] (HELM PEPTIDE1{[ac].K.W.I.L.I.S.A.W.E}$PEPTIDE1,PEPTIDE1,2:R3-10:R3$$$V2.0), in data set [1], the viability was found to be 97.6%. In data set [2], this molecule showed an EC50 of less than 7.5 µM. Besides, at β-catenin, the “β-Cat FP Hill slope” value was 0.7 and the Kd was in the range of 10 to 30 µM.
Turning to `CC[C@H](C)[C@@H]1NC(=O)[C@H](CC(C)C)NC(=O)[C@H](Cc2ccccc2)NC(=O)[C@H](Cc2c[nH]c3ccccc23)NC(=O)[C@H](CCSC)NC(=O)CCCCCNC(=O)C[C@@H](C(=O)O)NC(=O)[C@H](Cc2c[nH]c3ccccc23)NC(=O)[C@H](Cc2ccccc2)NC(=O)[C@H](CS)NC1=O` [compound 189] (HELM PEPTIDE1{[O=C(CCCCCN[*:1])[*:2]].M.W.F.L.I.C.F.W.D}$PEPTIDE1,PEPTIDE1,1:R1-10:R3$$$V2.0), in data set [1], the viability was 99.5%. Also, the EC50 in data set [2] is less than 7.5 µM. Also, at β-catenin, the “β-Cat FP Hill slope” value is listed as 1.69 and the Kd was in the range of 0.4 to 1 µM.
As to `CC[C@H](C)[C@@H]1NC(=O)[C@H](CC(C)C)NC(=O)[C@H](Cc2ccccc2)NC(=O)[C@H](Cc2c[nH]c3ccccc23)NC(=O)[C@H](CCSC)NC(=O)CCCNC(=O)C[C@@H](C(=O)O)NC(=O)[C@H](Cc2c[nH]c3ccccc23)NC(=O)[C@H](C)NC(=O)[C@H](CS)NC1=O` [compound 191] (HELM PEPTIDE1{[O=C(CCCN[*:1])[*:2]].M.W.F.L.I.C.A.W.D}$PEPTIDE1,PEPTIDE1,1:R1-10:R3$$$V2.0), the viability in data set [1] is 99.1%. The EC50 in data set [2] was in the range of 7.5 to 15 µM. In addition, at β-catenin, the “β-Cat FP Hill slope” value is 1.3 and the Kd lay in the range of 0.4 to 1 µM.
For `CC[C@H](C)[C@@H]1NC(=O)[C@H](CC(C)C)NC(=O)[C@H](Cc2ccccc2)NC(=O)[C@H](Cc2c[nH]c3ccccc23)NC(=O)[C@H](CCSC)NC(=O)CCCCCNC(=O)C[C@@H](C(=O)O)NC(=O)[C@H](Cc2c[nH]c3ccccc23)NC(=O)[C@H](C)NC(=O)[C@H](CS)NC1=O` [compound 192] (HELM PEPTIDE1{[O=C(CCCCCN[*:1])[*:2]].M.W.F.L.I.C.A.W.D}$PEPTIDE1,PEPTIDE1,1:R1-10:R3$$$V2.0), the viability in data set [1] stood at 103%. This molecule also came in with an EC50 in data set [2] of less than 7.5 µM. Moreover, on β-catenin, the “β-Cat FP Hill slope” value worked out at 1.33 and the Kd was less than 0.4 µM.
For the molecule `CC[C@H](C)[C@H](NC(=O)[C@H](CC(C)C)NC(=O)[C@H](Cc1ccccc1)NC(=O)[C@H](Cc1c[nH]c2ccccc12)NC(C)=O)C(=O)N[C@@H](CS)C(=O)N[C@@H](Cc1ccccc1)C(=O)N[C@@H](Cc1c[nH]c2ccccc12)C(=O)NCC(=O)O` [compound 194] (Ac-WFLICFWG-OH), in data set [1], the viability is 106%. Moreover, the EC50 in data set [2] is less than 7.5 µM. On β-catenin, the “β-Cat FP Hill slope” value is reported as 3 and the Kd lay within 0.4 to 1 µM.
Turning to `CC[C@H](C)[C@H](NC(=O)[C@H](CC(C)C)NC(=O)[C@@H](NC(=O)[C@H](Cc1c[nH]c2ccccc12)NC(C)=O)[C@@H](C)CC)C(=O)N[C@@H](CO)C(=O)N[C@@H](Cc1ccccc1)C(=O)N[C@@H](Cc1c[nH]c2ccccc12)C(=O)NCC(=O)O` [compound 195] (Ac-WILISFWG-OH), the viability in data set [1] was determined as 105%. Moreover, in data set [2], the EC50 is less than 7.5 µM. Further, at β-catenin, the “β-Cat FP Hill slope” value amounted to 3 and the Kd was less than 0.4 µM.
As for `CC[C@H](C)[C@H](NC(=O)[C@H](CC(C)C)NC(=O)[C@H](Cc1ccccc1)NC(=O)[C@H](Cc1c[nH]c2ccccc12)NC(C)=O)C(=O)N[C@@H](C)C(=O)N[C@@H](Cc1ccccc1)C(=O)N[C@@H](Cc1c[nH]c2ccccc12)C(=O)NCC(=O)O` [compound 196] (Ac-WFLIAFWG-OH), the viability in data set [1] came to 105%. This molecule also came in with an EC50 in data set [2] of less than 7.5 µM. On β-catenin, the “β-Cat FP Hill slope” value came to 2.58 and the Kd was 0.4 to 1 µM.

The viability is a read-out of living cells in per cent, often relative to untreated cells. As usually defined, the EC50 is the concentration giving half of the maximal effect. A word on the Kd: it is the free concentration of one partner at which half of the binding sites on the other are occupied at equilibrium, for simple one-to-one binding.
